Test results taken from ChEMBL document CHEMBL3425506, “Synthesis, antimycobacterial evaluation and pharmacophore modeling of analogues of the natural product formononetin” (2015).

Tested on: Mycobacterium tuberculosis
Assay: Antimycobacterial activity against Mycobacterium tuberculosis H37Rv ATCC 27294 assessed as inhibition of microbial growth at 10 uM after 5 to 8 days by MABA method
Format: functional
Settings: read-out: GI

| Compound | inhibition of growth at 10 µM |
| --- | --- |
| COc1ccc(-c2c[nH]nc2-c2ccc(O)cc2O)cc1 | 40% |
| COc1ccc(/C=C/C(=O)c2ccc(O)cc2O)cc1 | 58% |
| COc1ccc(-c2coc3ccc(F)cc3c2=O)cc1 | 0% |
| COc1ccc(-c2coc3cc(F)ccc3c2=O)cc1 | 0% |
| COc1ccc(-c2coc3ccc(Cl)cc3c2=O)cc1 | 0% |
| COc1ccc(-c2coc3ccc(OC)cc3c2=O)cc1 | 0% |
| COc1ccc(-c2coc3ccc(Br)cc3c2=O)cc1 | 5% |
| COc1ccc(-c2coc3ccc(C)cc3c2=O)cc1 | 7% |
| COc1ccc(-c2coc3ccc(O)cc3c2=O)cc1 | 28% |
| N#Cc1ccc(-c2coc3cc(O)ccc3c2=O)cc1 | 16% |
| CC(C)(C)c1ccc(-c2coc3cc(O)ccc3c2=O)cc1 | 95% |
| COc1ccc(-c2coc3cc(O)ccc3c2=O)cn1 | 0% |
| COc1ccc(-c2coc3cc(O)ccc3c2=O)cc1F | 13% |
| COc1ccc(-c2coc3cc(F)ccc3c2=O)cn1 | 2% |
| COc1ccc(-c2coc3cc(O)ccc3c2=S)cc1 | 4% |
| COc1ccc(-c2cnoc2-c2ccc(O)cc2O)cc1 | 15% |
| COc1ccc(-c2coc3ccccc3c2=O)cc1 | 0% |
| O=c1c(-c2ccc(Cl)cc2)coc2cc(O)ccc12 | 54% |
| COc1ccc(-c2coc3cc(O)ccc3c2=O)cc1OC [CLADRIN] | 14% |
| COc1ccc(-c2coc3cc(O)ccc3c2=O)cc1 [FORMONONETIN] | 88% |
| O=c1c(-c2ccccc2)coc2ccccc12 [ISOFLAVONE] | 0% |
